According to PubChem BioAssay (NCI):
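96-well plates; 48 h exposure; 5 concentrations. Endpoints by linear interpolation between flanking doses. Not reached: highest tested concentration assigned. The concentration for full growth arrest is given as TGI.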

What was measured:
Experiment in all cases: inhibition of tumour cell growth, NCI panel, 48 h
CAKI-1 renal = tested on: CAKI-1 renal
NCI-H522 lung = tested on: NCI-H522 lung
ACHN renal = tested on: ACHN renal
M14 melanoma = tested on: M14 melanoma
HL-60(TB) leukemia = tested on: HL-60(TB) leukemia
786-0 renal = tested on: 786-0 renal
OVCAR-8 ovarian = tested on: OVCAR-8 ovarian
SK-MEL-2 melanoma = tested on: SK-MEL-2 melanoma

## CC(=O)O[C@]1(C(C)=O)CC[C@H]2[C@@H]3C[C@H](C)C4=CC(=O)C=C[C@]4(C)[C@@]3(F)[C@@H](O)C[C@@]21C
CAKI-1 renal
  TGI: > 100 µM
NCI-H522 lung
  TGI: > 100 µM
ACHN renal
  TGI: > 100 µM
M14 melanoma
  TGI: > 100 µM
HL-60(TB) leukemia
  TGI: > 100 µM
786-0 renal
  TGI: > 100 µM

## O=C(NC1CCCCC1)c1c(O)[nH]c(=S)[nH]c1=O
OVCAR-8 ovarian
  TGI: > 100 µM
CAKI-1 renal
  TGI: > 100 µM
NCI-H522 lung
  TGI: > 100 µM
SK-MEL-2 melanoma
  TGI: > 100 µM
ACHN renal
  TGI: > 100 µM
M14 melanoma
  TGI: > 100 µM
786-0 renal
  TGI: > 100 µM

## O=C(O)CSc1n[nH]c(/C=C/c2ccccc2)n1
OVCAR-8 ovarian
  TGI: > 100 µM
CAKI-1 renal
  TGI: > 100 µM
NCI-H522 lung
  TGI: > 100 µM
SK-MEL-2 melanoma
  TGI: > 100 µM
ACHN renal
  TGI: > 100 µM
M14 melanoma
  TGI: > 100 µM
HL-60(TB) leukemia
  TGI: > 100 µM
786-0 renal
  TGI: > 100 µM

## CC(NC(=O)c1ccccc1)C(=O)N(Cc1ccccc1)Cc1ccccc1 (stereo not given)
CAKI-1 renal
  TGI: > 100 µM
NCI-H522 lung
  TGI: 65.2 µM
SK-MEL-2 melanoma
  TGI: 56.3 µM
ACHN renal
  TGI: > 100 µM
M14 melanoma
  TGI: 39.1 µM
786-0 renal
  TGI: > 100 µM

## COc1ccc(CC(=O)c2cc(OC)c(OC)cc2C)cc1OC
OVCAR-8 ovarian
  TGI: > 100 µM
CAKI-1 renal
  TGI: > 100 µM
NCI-H522 lung
  TGI: > 100 µM
SK-MEL-2 melanoma
  TGI: > 100 µM
ACHN renal
  TGI: > 100 µM
M14 melanoma
  TGI: > 100 µM
786-0 renal
  TGI: > 100 µM

## O=C(/C=C/c1ccc(OCCCCCCCCCCOc2ccc(/C=C/C(=O)c3ccc(Cl)cc3)cc2)cc1)c1ccc(Cl)cc1
OVCAR-8 ovarian
  TGI: > 100 µM
CAKI-1 renal
  TGI: > 100 µM
NCI-H522 lung
  TGI: > 100 µM
SK-MEL-2 melanoma
  TGI: > 100 µM
ACHN renal
  TGI: > 100 µM
HL-60(TB) leukemia
  TGI: > 100 µM
786-0 renal
  TGI: > 100 µM

## Cc1cccc(C)c1NC(=O)CCC(=O)NNC(=O)c1cc(O)c2ccccc2c1
OVCAR-8 ovarian
  TGI: 87.4 µM
CAKI-1 renal
  TGI: > 100 µM
NCI-H522 lung
  TGI: 82.3 µM
ACHN renal
  TGI: > 100 µM
M14 melanoma
  TGI: > 100 µM
HL-60(TB) leukemia
  TGI: 95.2 µM
786-0 renal
  TGI: > 100 µM

## Cc1c(/C=C2\CC/C(=C\c3[nH]c(C(=O)OC(C)(C)C)c(C)c3C)C2=O)[nH]c(C(=O)OC(C)(C)C)c1C
OVCAR-8 ovarian
  TGI: > 100 µM
CAKI-1 renal
  TGI: > 100 µM
NCI-H522 lung
  TGI: > 100 µM
SK-MEL-2 melanoma
  TGI: > 100 µM
M14 melanoma
  TGI: > 100 µM
HL-60(TB) leukemia
  TGI: > 100 µM
786-0 renal
  TGI: > 100 µM

## CN(C)CCC1(C2=CCCC2)CC/C(=C\c2ccc3c(c2)OCO3)C1=O (stereo not given)
OVCAR-8 ovarian
  TGI: 29 µM
SK-MEL-2 melanoma
  TGI: 31.6 µM
ACHN renal
  TGI: 29.6 µM
M14 melanoma
  TGI: 28.3 µM
HL-60(TB) leukemia
  TGI: 37 µM
786-0 renal
  TGI: 26.9 µM

## CS(=O)(=O)C1S(=O)(=O)OCCOS1(=O)=O
OVCAR-8 ovarian
  TGI: > 100 µM
CAKI-1 renal
  TGI: > 100 µM
NCI-H522 lung
  TGI: > 100 µM
ACHN renal
  TGI: > 100 µM
M14 melanoma
  TGI: > 100 µM
HL-60(TB) leukemia
  TGI: > 100 µM
786-0 renal
  TGI: > 100 µM

## O=C(Cc1ccccc1)Oc1ccc2c(-c3ccccc3)c(C(=O)Nc3ccc(Cl)cc3)c(=O)oc2c1
OVCAR-8 ovarian
  TGI: > 100 µM
CAKI-1 renal
  TGI: > 100 µM
NCI-H522 lung
  TGI: > 100 µM
ACHN renal
  TGI: > 100 µM
M14 melanoma
  TGI: > 100 µM
HL-60(TB) leukemia
  TGI: > 100 µM
786-0 renal
  TGI: > 100 µM
